In patent US20210045385A1, “PYRIDAZINONE-SUBSTITUTED KETOXIMES AS HERBICIDES” (FMC Corporation, priority 2018, published 2021):

Tests used:
Assay type in all cases: in vivo
[1] = test system: Italian ryegrass (Lolium mutiflorum); experiment: Test C preemergence, visual plant response rating; details: Test C, 0 is no effect, 100 is complete control
Method in brief: (§1)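 Visual injury on a 0 (no effect) to 100 (complete control) scale versus untreated controls, scored approximately 10 d after treatment under greenhouse conditions. Treatments used surfactant-containing non-phytotoxic solvent formulations, sprayed onto loam–sand soil preemergence or onto one- to two-leaf plants 2–10 cm tall postemergence.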

[2] = test system: foxtail, giant (giant foxtail, Setaria faberi); experiment: Test C preemergence, visual plant response rating; details: Test C, 0 is no effect, 100 is complete control
Method in brief: as §1

[3] = test system: pigweed (Amaranthus retroflexus); experiment: Test C preemergence, visual plant response rating; details: Test C, 0 is no effect, 100 is complete control
Method in brief: as §1

[4] = test system: ragweed (common ragweed, Ambrosia artemisiifolia); experiment: Test C preemergence, visual plant response rating; details: Test C, 0 is no effect, 100 is complete control
Method in brief: as §1

[5] = test system: barnyardgrass (Echinochloa crus-galli); experiment: Test C preemergence, visual plant response rating; details: Test C, 0 is no effect, 100 is complete control
Method in brief: as §1

[6] = test system: kochia (Bassia scoparia); experiment: Test C preemergence, visual plant response rating; details: Test C, 0 is no effect, 100 is complete control
Method in brief: as §1

[7] = test system: rice (Oryza sativa); experiment: Test D flooded paddy test, visual plant response rating; details: 250 g ai/ha, scale 0 to 100 (0 no effect, 100 complete control), 13 to 15 d
Method in brief: (§2)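 Visual injury scores, 0 (no effect) to 100 (complete control), were assigned after 13 to 15 d in the greenhouse by comparison with controls. Test compounds had been added to paddy water covering soil by 3 cm at the 2-leaf stage.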

[8] = test system: sedge umbrella (small-flower umbrella sedge, Cyperus difformis); experiment: as above; details: 250 g ai/ha, scale 0 to 100 (0 no effect, 100 complete control), 13 to 15 d
Method in brief: as §2

[9] = test system: duck salad (Heteranthera limosa); experiment: as above; details: 250 g ai/ha, scale 0 to 100 (0 no effect, 100 complete control), 13 to 15 d
Method in brief: as §2

[10] = test system: barnyardgrass (Echinochloa crus-galli); experiment: as above; details: 250 g ai/ha, scale 0 to 100 (0 no effect, 100 complete control), 13 to 15 d
Method in brief: as §2

[11] = test system: Italian ryegrass (Lolium mutiflorum); experiment: Test C postemergence, visual plant response rating
Method in brief: as §1

[12] = test system: wheat (Triticum aestivum); experiment: Test C postemergence, visual plant response rating
Method in brief: as §1

[13] = test system: blackgrass (Alopecurus myosuroides); experiment: Test C postemergence, visual plant response rating
Method in brief: as §1

[14] = test system: foxtail, giant (giant foxtail, Setaria faberi); experiment: Test C postemergence, visual plant response rating
Method in brief: as §1

[15] = test system: pigweed (Amaranthus retroflexus); experiment: Test C postemergence, visual plant response rating
Method in brief: as §1

[16] = test system: ragweed (common ragweed, Ambrosia artemisiifolia); experiment: Test C postemergence, visual plant response rating
Method in brief: as §1

[17] = test system: galium (catchweed bedstraw, Galium aparine); experiment: Test C postemergence, visual plant response rating
Method in brief: as §1

[18] = test system: corn (Zea mays); experiment: Test C postemergence, visual plant response rating
Method in brief: as §1

[19] = test system: barnyardgrass (Echinochloa crus-galli); experiment: Test C postemergence, visual plant response rating
Method in brief: as §1

[20] = test system: kochia (Bassia scoparia); experiment: Test C postemergence, visual plant response rating
Method in brief: as §1

[21] = Test C, postemergence, 125 g ai/ha

Structure (SMILES) | Ryegrass, Italian plant response rating (0 to 100 scale) ([1]; 31 g ai/ha) | Ryegrass, Italian plant response rating (0 to 100 scale) ([1]; 125 g ai/ha) | Foxtail, Giant plant response rating (0 to 100 scale) ([2]; 31 g ai/ha) | Foxtail, Giant plant response rating (0 to 100 scale) ([2]; 125 g ai/ha) | Pigweed plant response rating (0 to 100 scale) ([3]; 31 g ai/ha) | Pigweed plant response rating (0 to 100 scale) ([3]; 125 g ai/ha) | Ragweed plant response rating (0 to 100 scale) ([4]; 31 g ai/ha) | Ragweed plant response rating (0 to 100 scale) ([4]; 125 g ai/ha) | Barnyardgrass plant response rating (0 to 100 scale) ([5]; 31 g ai/ha) | Barnyardgrass plant response rating (0 to 100 scale) ([5]; 125 g ai/ha) | Kochia plant response rating (0 to 100 scale) ([6]; 31 g ai/ha) | Kochia plant response rating (0 to 100 scale) ([6]; 125 g ai/ha) | Plant response rating, Rice (Flood) [7] | Plant response rating, Sedge, Umbrella (Flood) [8] | Plant response rating, Ducksalad (Flood) [9] | Plant response rating, Barnyardgrass (Flood) [10] | Ryegrass, Italian plant response rating (0 to 100 scale) ([11]; Postemergence, 31 g ai/ha) | Ryegrass, Italian plant response rating (0 to 100 scale) [11, 21] | Wheat plant response rating (0 to 100 scale) ([12]; Postemergence, 31 g ai/ha) | Wheat plant response rating (0 to 100 scale) [12, 21] | other results
C#CCON=C(c1cc(Cl)cc(Cl)c1Cl)c1c(O)c(C)nn(C)c1=O [Compound 296] | 90 | 100 | 80 | 100 | 40 | 100 | 30 | 100 | 60 | 100 | 0 | 20 | 0 | 0 | 0 | 0 | 80 | 100 | 70 | 100 | Blackgrass plant response rating (0 to 100 scale) ([13]; Postemergence, 31 g ai/ha): 0; Blackgrass plant response rating (0 to 100 scale) [13, 21]: 70; Foxtail, Giant plant response rating (0 to 100 scale) ([14]; Postemergence, 31 g ai/ha): 30; Foxtail, Giant plant response rating (0 to 100 scale) [14, 21]: 90; Pigweed plant response rating (0 to 100 scale) ([15]; Postemergence, 31 g ai/ha): 80; Pigweed plant response rating (0 to 100 scale) [15, 21]: 90; Ragweed plant response rating (0 to 100 scale) ([16]; Postemergence, 31 g ai/ha): 100; Ragweed plant response rating (0 to 100 scale) [16, 21]: 100; Galium plant response rating (0 to 100 scale) ([17]; Postemergence, 31 g ai/ha): 100; Galium plant response rating (0 to 100 scale) [17, 21]: 100; Corn plant response rating (0 to 100 scale) ([18]; Postemergence, 31 g ai/ha): 0; Corn plant response rating (0 to 100 scale) [18, 21]: 20; Barnyardgrass plant response rating (0 to 100 scale) ([19]; Postemergence, 31 g ai/ha): 20; Barnyardgrass plant response rating (0 to 100 scale) [19, 21]: 70; Kochia plant response rating (0 to 100 scale) ([20]; Postemergence, 31 g ai/ha): 30; Kochia plant response rating (0 to 100 scale) [20, 21]: 50
CO/N=C(/c1c(O)c(C)nn(C)c1=O)c1cccc2cc(SC)ccc12 [Compound 297] | 0 | 0 | 0 | 0 | 0 | 0 | 0 | 0 | 0 | 0 | 0 | 0 | 0 | 0 | 0 | 0 | 0 | 0 | 0 | 0 | Blackgrass plant response rating (0 to 100 scale) ([13]; Postemergence, 31 g ai/ha): 0; Blackgrass plant response rating (0 to 100 scale) [13, 21]: 0; Foxtail, Giant plant response rating (0 to 100 scale) ([14]; Postemergence, 31 g ai/ha): 0; Foxtail, Giant plant response rating (0 to 100 scale) [14, 21]: 0; Pigweed plant response rating (0 to 100 scale) ([15]; Postemergence, 31 g ai/ha): 0; Pigweed plant response rating (0 to 100 scale) [15, 21]: 0; Ragweed plant response rating (0 to 100 scale) ([16]; Postemergence, 31 g ai/ha): 0; Ragweed plant response rating (0 to 100 scale) [16, 21]: 0; Galium plant response rating (0 to 100 scale) ([17]; Postemergence, 31 g ai/ha): 0; Galium plant response rating (0 to 100 scale) [17, 21]: 0; Corn plant response rating (0 to 100 scale) ([18]; Postemergence, 31 g ai/ha): 0; Corn plant response rating (0 to 100 scale) [18, 21]: 0; Barnyardgrass plant response rating (0 to 100 scale) ([19]; Postemergence, 31 g ai/ha): 0; Barnyardgrass plant response rating (0 to 100 scale) [19, 21]: 0; Kochia plant response rating (0 to 100 scale) ([20]; Postemergence, 31 g ai/ha): 0; Kochia plant response rating (0 to 100 scale) [20, 21]: 0
CO/N=C(/c1c(O)c(C)nn(C)c1=O)c1cc(SC)cc2ccccc12 [Compound 298] | 0 | 0 | 0 | 0 | 0 | 10 | 0 | 0 | 0 | 0 | 0 | 0 | 0 | 0 | 0 | 0 | 0 | 0 | 0 | 0 | Blackgrass plant response rating (0 to 100 scale) ([13]; Postemergence, 31 g ai/ha): 0; Blackgrass plant response rating (0 to 100 scale) [13, 21]: 20; Foxtail, Giant plant response rating (0 to 100 scale) ([14]; Postemergence, 31 g ai/ha): 0; Foxtail, Giant plant response rating (0 to 100 scale) [14, 21]: 0; Pigweed plant response rating (0 to 100 scale) ([15]; Postemergence, 31 g ai/ha): 0; Pigweed plant response rating (0 to 100 scale) [15, 21]: 40; Ragweed plant response rating (0 to 100 scale) ([16]; Postemergence, 31 g ai/ha): 0; Ragweed plant response rating (0 to 100 scale) [16, 21]: 10; Galium plant response rating (0 to 100 scale) ([17]; Postemergence, 31 g ai/ha): 0; Galium plant response rating (0 to 100 scale) [17, 21]: 30; Corn plant response rating (0 to 100 scale) ([18]; Postemergence, 31 g ai/ha): 0; Corn plant response rating (0 to 100 scale) [18, 21]: 0; Barnyardgrass plant response rating (0 to 100 scale) ([19]; Postemergence, 31 g ai/ha): 0; Barnyardgrass plant response rating (0 to 100 scale) [19, 21]: 0; Kochia plant response rating (0 to 100 scale) ([20]; Postemergence, 31 g ai/ha): 0; Kochia plant response rating (0 to 100 scale) [20, 21]: 10
CON=C(c1cc(Cl)cc(Cl)c1F)c1c(O)c(C)nn(C)c1=O [Compound 299] | 100 | 100 | 100 | 100 | 100 | 100 | 90 | 100 | 90 | 100 | 90 | 100 | 45 | 90 | 80 | 85 | 100 | 100 | 30 | 70 | Blackgrass plant response rating (0 to 100 scale) ([13]; Postemergence, 31 g ai/ha): 80; Blackgrass plant response rating (0 to 100 scale) [13, 21]: 80; Foxtail, Giant plant response rating (0 to 100 scale) ([14]; Postemergence, 31 g ai/ha): 90; Foxtail, Giant plant response rating (0 to 100 scale) [14, 21]: 100; Pigweed plant response rating (0 to 100 scale) ([15]; Postemergence, 31 g ai/ha): 90; Pigweed plant response rating (0 to 100 scale) [15, 21]: 100; Ragweed plant response rating (0 to 100 scale) ([16]; Postemergence, 31 g ai/ha): 100; Ragweed plant response rating (0 to 100 scale) [16, 21]: 100; Galium plant response rating (0 to 100 scale) ([17]; Postemergence, 31 g ai/ha): 100; Galium plant response rating (0 to 100 scale) [17, 21]: 100; Corn plant response rating (0 to 100 scale) ([18]; Postemergence, 31 g ai/ha): 10; Corn plant response rating (0 to 100 scale) [18, 21]: 30; Barnyardgrass plant response rating (0 to 100 scale) ([19]; Postemergence, 31 g ai/ha): 70; Barnyardgrass plant response rating (0 to 100 scale) [19, 21]: 90; Kochia plant response rating (0 to 100 scale) ([20]; Postemergence, 31 g ai/ha): 100; Kochia plant response rating (0 to 100 scale) [20, 21]: 100
